Source: patent US20020049185A1, “Malonic acid based matrix metalloproteinase inhibitors” (ROCHE DIAGNOSTICS GMBH, priority 1994, published 2002)
Residues, ends and D or L forms follow the SMILES beside them. *: point of attachment. NHOH = ON*

How the values were obtained:
[1] = biological target: T1, catalytic domain (Met80-Gly242) of human neutrophil collagenase (Homo sapiens, UniProt P22894); experiment: Enzyme assay: inhibition of cleavage of a fluorogenic substrate by the HNC catalytic domain; assay type: biochemical; details: HNC (MMP-8) catalytic domain, 25° C., substrate DNP-Pro-Leu-Gly-Leu-Trp-Ala-D-Arg-NH2
T1 construct: 8 nM catalytic domain (Met80-Gly242) of human neutrophil collagenase; made in house; host or cells: E. coli
Method: In order to determine the inhibition of MMPs, for example HNC, the catalytic domain (isolation and purification see example 1) is incubated with inhibitors having various concentrations. Subsequently, the initial reaction rate in the conversion of a standard substrate is measured in a manner analogous to F. Grams et al. (1993)^51.
The results are evaluated by plotting the reciprocal reaction rate against the concentration of the inhibitor. The inhibition constant (Ki) is obtained as the negative section of the abscissis by the graphical method according to M. Dixon (1953)^28.
The synthetic collagenase substrate is a heptapeptide which is coupled, at the […], with DNP (dinitrophenol). Said DNP residue quenches by steric hindrance the fluorescence of the adjacent tryptophane of the heptapeptide. After cleavage of a tripeptide which includes the DNP group, the tryptophane fluorescence increases. The proteolytic cleavage of the substrate therefore can be measured by the fluorescence value.
The assay was performed at 25° C. in a freshly prepared 50 mM Tris buffer (pH 8.0) treated with dithiozone to remove traces of heavy metals. 4 mM CaCl2 was added and the buffer saturated wtih argon. Stock solutions of adamalysin II were prepared by centrifugation of the protein from an ammonium sulfate suspension and subsequent dissolution in the assay buffer Stock solutions of collagenase were diluted with the assay buffer. Enzyme concentrations were determined by uv measurements (ε280=2.8·10^4 M^−1 cm^−1, ε288·2.2 10^4 M^−1 cm^−1) and the stock solutions were stored in the cold. This solution was diluted 1 100 to obtain the final 16 nM assay concentration. The fluorogenic substrate DNP-ProLeu-Gly-Leu-Trp-Ala-D-Arg-NH2 with a Km of 52 μM was used at a concentration of 21.4 μM, for the Ki determination a 12.8 μM concentration has also been used. Substrate fluorescence was measured at an excitation and emission wavelength of λ=[…], respectively, on a spectrofluorimeter (Perkin Elmer, Model 650-40) equipped with a thermostated cell holder. Substrate hydrolysis was monitored for 10 min. immediately after adding the enzyme. All reactions were performed at least in triplicate. The Ki values of the inhibitors were calculated from the intersection point of the straight lines obtained by the plots of vo/vi vs. [concentration of inhibitor], whereas IC50 values were calculated from plots of vi/vo [concentration of inhibitor] by non-linear regression with simple robust weighting.
50 mM Tris/HCl pH 7.6 (Tris=Tris-(hydroxymethyl)-aminomethan)
8 nM catalytic domain (Met80-Gly242) of human neutrophil collagenase
10 microM DNP-Pro-Leu-Gly-Leu-Trp-Ala-D-Arg-NH2
A solution of the enzyme and inhibitor in assay buffer (25° C.) was prepared. The reaction was started directly by giving the substrate into the solution. The cleavage of the flourogenic substrate was followed by flourescence spectroscopy with an excitation and emision wavelength of 280 and 350 nm, respectively. The IC50 value was calculated as the inhibitor concentration, which is necessary to decrease the velocity of the reaction to the half in comparison to the reaction without inhibitor.

[2] = tested on: MMPs; experiment: Inhibition of MMPs; assay type: biochemical
[3] = biological target: collagenase (Homo sapiens, UniProt P22894); experiment: Affinity for collagenase (statement in text, HNC complex); assay type: binding
Chain of collagenase (P22894 101-467): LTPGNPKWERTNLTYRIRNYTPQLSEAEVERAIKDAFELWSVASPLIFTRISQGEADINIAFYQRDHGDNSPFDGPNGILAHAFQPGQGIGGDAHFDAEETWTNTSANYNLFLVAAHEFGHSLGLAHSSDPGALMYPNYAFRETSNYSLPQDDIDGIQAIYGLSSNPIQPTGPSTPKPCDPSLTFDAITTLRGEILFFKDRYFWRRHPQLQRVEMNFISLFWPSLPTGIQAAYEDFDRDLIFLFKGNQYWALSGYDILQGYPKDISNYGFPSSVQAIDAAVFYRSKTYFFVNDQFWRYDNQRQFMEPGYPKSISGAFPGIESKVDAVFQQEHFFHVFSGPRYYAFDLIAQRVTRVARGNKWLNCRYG

T1 sequence (P22894 100-262): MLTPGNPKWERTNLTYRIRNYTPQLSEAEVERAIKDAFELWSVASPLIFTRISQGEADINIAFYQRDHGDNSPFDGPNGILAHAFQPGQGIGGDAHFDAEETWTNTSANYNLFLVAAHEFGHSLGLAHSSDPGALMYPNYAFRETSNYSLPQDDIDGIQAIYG

Row | IC50 [1] [µM] | SMILES | inhibition of MMPs (in words) [2] | affinity for collagenase (in words) [3]
1 | 1.6 | Cc1ccc(CCNC(=O)C(CCc2ccccc2)NC(=O)C(CC(C)C)C(=O)NO)cc1 (mixture of isomers) [ER070, HONH-iBM-Homophe-NHCH2CH2Ph(p-Me)] | – | –
2 | 61 | CC(C)CC(C(=O)NO)C(=O)NC(CO)C(=O)NCC(=O)NCc1ccccc1 (mixture of isomers) [ER059, HONH-iBM-Ser-Gly-NHBn] | – | –
3 | 29 | CC(C)CC(C(=O)NO)C(=O)NC(Cc1ccccc1)C(=O)NCc1ccccc1 (mixture of isomers) [ER074, HONH-iBM-Phe-NHBn] | – | –
4 | 30 | CC(C)CC(C(=O)NO)C(=O)NC(CC(N)=O)C(=O)NCc1cccc(N)c1 (mixture of isomers) [ER031, HONH-iBM-Asn-NHBn(m-NH2)] | – | –

The remaining lines, values behind:

Row | SMILES | IC50 [1] [µM] | inhibition of MMPs (in words) [2] | affinity for collagenase (in words) [3]
5 | CC(C)CC(C(=O)NO)C(=O)NC(CC(N)=O)C(=O)NCc1ccccc1 (mixture of isomers) [ER017, HONH-iBM-Asn-NHBn] | 63 | – | –
6 | CC(C)CC(C(=O)NO)C(=O)N[C@@H](C)C(=O)NCC(N)=O (stereo partly drawn) [ER029, HONH-2-isobutylmalonyl-L-alanyl glycinamide, reference compound] | 139 | very poorly | –
7 | CC(C)C[C@H](NC(=O)[C@@H]1CCCN1)C(=O)NCC(=O)NO [PLG-NHOH, L-prolyl-L-leucyl-glycin-hydroxamate] (H-Pro-Leu-Gly-{NHOH}) | – | – | relatively weak
8 | CC(C)CC(C(=O)NO)C(=O)NC(C)C(=O)NCc1ccccc1 (mixture of isomers) [ER014, HONH-iBM-Ala-NHBn] | 58 | – | –
9 | CC(C)CC(C(=O)NO)C(=O)NC(CO)C(=O)NCc1ccccc1 (mixture of isomers) [ER028, HONH-iBM-Ser-NHBn] | 40 | – | –
